These results are taken from patent US20130261077A1 (priority 2012, published 2013).

In the test the target is T1, FimH-CRD (Escherichia coli, UniProt P08191).
T1 construct: The first 177 amino acids of the FimH protein; thrombin tag (printed as 'fusion protein with thrombin') (cleaved yes); made in house; host or cells: bacteria (pET21b plasmid)
T1 sequence (P08191 22-177): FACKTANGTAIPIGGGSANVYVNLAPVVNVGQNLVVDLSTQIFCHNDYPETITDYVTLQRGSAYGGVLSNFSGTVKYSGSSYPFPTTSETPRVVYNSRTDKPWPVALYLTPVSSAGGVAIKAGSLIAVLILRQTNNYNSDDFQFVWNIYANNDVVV
The test is described as follows: Competitive binding assay by fluorescence polarization, assay 1 (compounds prepared by manual serial dilution). As for the experimental part:
The first 177 amino acids of the FimH protein were expressed as a fusion protein with thrombin in a pET21b plasmid in bacteria. This FimH protein sequence contains the carbohydrate recognition domain (CRD) and shall be termed FimH-CRD. Following bacterial expression of the protein, the FimH-CRD protein was purified to homogeneity and the thrombin tag removed by protease cleavage. A competitive binding assay by fluorescence polarization was performed using 5 nM of the Alexa 647 mannoside probe and 60 nM of the FimH-CRD. The samples are assayed in a low volume 384 well microtiter plate in a final volume of 20 μl. The final assay buffer conditions are the following, 50 mM Tris-Cl, ph 7.0, 100 mM NaCl, 1 mM EDTA, 5 mM β-mercaptoethanol, 0.05% BSA and 2.5% DMSO. Two assays are performed for FimH, termed assay 1 or assay 2. The assay conditions are the same for both assays except the following: assay 1 has compounds prepared by manual dilution in a serial dilution factor with 12-point dose response while assay 2 has compounds prepared by a robotics system also through a serial dilution factor (12 point dose response) and initially prepared in duplicate in 384 well-Corning polypropylene round bottom plates. The assay 2 plates have compound which is then frozen and must be thawed prior to use. Initially the Alexa 647 probe and the FimH-CRD are added to the assay buffer and then 0.5 μl of test compound (assay 1 or 2) between 0.4 nM to 75 μM final concentration are added (12 point titration with 3-fold serial dilution). Control wells for the Alexa 647 probe are prepared with the same conditions except for the addition of the FimH-CRD protein. Plates are then incubated for 5 hrs at room temperature in the dark and under humid conditions to prevent drying. Plates are read using the SpectraMax Paradigm multi-mode plate reader and the appropriate fluorescent polarization detection cartridge (Alexa-647).
Alexa 647 mannoside probe is prepared using the similar procedure reported for FAM mannoside (Han, Z. et. al., 2010, J. Med. Chem., 53, 4779) and is described in the scheme below.
To a blue colored stirred solution of (2S,3S,4S,5S,6R)-2-(4-aminobutoxy)-6-(hydroxymethyl)tetrahydropyran-3,4,5-triol (2.21 mg, 0.009 mmol) and the (2E)-2-[(2E,4E)-5-[3,3-dimethyl-5-sulfonato-1-(3-sulfonatopropyl)indol-1-ium-2-yl]penta-2,4-dienylidene]-3-[6-(2,5-dioxopyrrolidin-1-yl)oxy-6-oxo-hexyl]-3-methyl-1-(3-sulfonatopropyl)indoline-5-sulfonate (Potassium Ion (3)) (4.9 mg, 0.0044 mmol) in DMF (44 μL) is added Et3N (5.4 mg, 7.0 μL, 0.053 mmol) at RT. The solution is stirred at room temperature over night, concentrated, dissolved in water and purified on 12 g C-18 silica gel cartridge on Isolera system using acetonitrile in water (0 to 40%, 10 CV) and followed by lyophilization to afford Alexa 647 mannoside probe (3.3 mg, 34%) as deep blue solid.
The Kd values of the compounds are determined from dose response curves using twelve concentrations per compound in duplicate. Curves are fitted to data points using Fluorescence Polarization competitive displacement analysis, and Kds are interpolated from the resulting curves using GraphPad Prism software, version […] (GraphPad software Inc., San Diego, Calif., USA).
(Polarisation of emitted light reports the rotation of a fluorescent probe.)
Take `Cc1cnc(NC(=O)c2cccc([C@H]3O[C@H](CO)[C@@H](O)[C@H](O)[C@@H]3O)c2)s1` [Compound 28, N-(5-methylthiazol-2-yl)-3-((2R,3S,4R,5S,6R)-3,4,5-trihydroxy-6-(hydroxymethyl)tetrahydro-2H-pyran-2-yl)benzamide]: the IC50 was 56 nM and the affinity, expressed as Kd, was 16.7 ± 7.5 nM.

`O=C(Nc1cccnc1)c1cccc([C@H]2O[C@H](CO)[C@@H](O)[C@H](O)[C@@H]2O)c1` [Compound 29, N-(pyridin-3-yl)-3-((2R,3S,4R,5S,6R)-3,4,5-trihydroxy-6-(hydroxymethyl)tetrahydro-2H-pyran-2-yl)benzamide] showed an IC50 of 59 nM and a Kd of 18.1 ± 5.9 nM.

`O=C(Nc1nc2ccc(Cl)cc2s1)c1cccc([C@H]2O[C@H](CO)[C@@H](O)[C@H](O)[C@@H]2O)c1` [Compound 30, N-(6-chlorobenzo[d]thiazol-2-yl)-3-((2R,3S,4R,5S,6R)-3,4,5-trihydroxy-6-(hydroxymethyl)tetrahydro-2H-pyran-2-yl)benzamide]: the IC50 stood at 53 nM and binding was characterised by a dissociation constant (Kd) of 9.8 ± 1.8 nM.

`CCCc1ccc(NC(=O)c2cccc([C@H]3O[C@H](CO)[C@@H](O)[C@H](O)[C@@H]3O)c2)cc1` [Compound 31, N-(4-propylphenyl)-3-((2R,3S,4R,5S,6R)-3,4,5-trihydroxy-6-(hydroxymethyl)tetrahydro-2H-pyran-2-yl)benzamide] yielded an IC50 of 84 nM and a Kd of 22.8 ± 0.9 nM.

Regarding `O=C(Nc1ccc2ccccc2c1)c1cccc([C@H]2O[C@H](CO)[C@@H](O)[C@H](O)[C@@H]2O)c1` [Compound 32, N-(naphthalen-2-yl)-3-((2R,3S,4R,5S,6R)-3,4,5-trihydroxy-6-(hydroxymethyl)tetrahydro-2H-pyran-2-yl)benzamide], the IC50 was 45 nM and the Kd stood at 22.6 ± 18.7 nM.

Take `O=C(NCc1ccccc1)c1cccc([C@H]2O[C@H](CO)[C@@H](O)[C@H](O)[C@@H]2O)c1` [Compound 33, N-benzyl-3-((2R,3S,4R,5S,6R)-3,4,5-trihydroxy-6-(hydroxymethyl)tetrahydro-2H-pyran-2-yl)benzamide]: the IC50 is 76 nM and the Kd came out at 28.9 ± 14.5 nM.

As to `O=C(NCCc1ccccc1)c1cccc([C@H]2O[C@H](CO)[C@@H](O)[C@H](O)[C@@H]2O)c1` [Compound 34, N-phenethyl-3-((2R,3S,4R,5S,6R)-3,4,5-trihydroxy-6-(hydroxymethyl)tetrahydro-2H-pyran-2-yl)benzamide], the IC50 was 124 nM and the Kd came to 38 ± 7.1 nM.

With `O=C(NC1CC1)c1cccc([C@H]2O[C@H](CO)[C@@H](O)[C@H](O)[C@@H]2O)c1` [Compound 36, N-cyclopropyl-3-((2R,3S,4R,5S,6R)-3,4,5-trihydroxy-6-(hydroxymethyl)tetrahydro-2H-pyran-2-yl)benzamide], the IC50 was 168 nM and binding was put at a Kd of 53.2 ± 6.5 nM.

For the molecule `O=C(NCC1CC1)c1cccc([C@H]2O[C@H](CO)[C@@H](O)[C@H](O)[C@@H]2O)c1` [Compound 37, N-(cyclopropylmethyl)-3-((2R,3S,4R,5S,6R)-3,4,5-trihydroxy-6-(hydroxymethyl)tetrahydro-2H-pyran-2-yl)benzamide], the Kd came out at 40.1 ± 15.1 nM.

Molecule `CNC(=O)c1cccc(-c2ccccc2[C@H]2O[C@H](CO)[C@@H](O)[C@H](O)[C@@H]2O)c1` [Compound 39, N-methyl-2′-((2R,3S,4R,5S,6R)-3,4,5-trihydroxy-6-(hydroxymethyl)tetrahydro-2H-pyran-2-yl)-[1,1′-biphenyl]-3-carboxamide] registered an IC50 of 1390 nM and a Kd of 396 ± 44.7 nM.

As for `COc1ccc(Br)cc1[C@H]1O[C@H](CO)[C@@H](O)[C@H](O)[C@@H]1O` [Compound 41, (2R,3S,4R,5S,6R)-2-(5-bromo-2-methoxyphenyl)-6-(hydroxymethyl)tetrahydro-2H-pyran-3,4,5-triol], the IC50 was determined as 223 nM and the Kd was 47.8 ± 6.8 nM.

With `COC(=O)CCc1ccc(OC)c([C@H]2O[C@H](CO)[C@@H](O)[C@H](O)[C@@H]2O)c1` [Compound 42, Methyl 3-(4-methoxy-3-((2R,3S,4R,5S,6R)-3,4,5-trihydroxy-6-(hydroxymethyl)tetrahydro-2H-pyran-2-yl)phenyl)propanoate], the IC50 is 225 nM and the Kd came to 58.4 ± 9.8 nM.

`OC[C@H]1O[C@H](c2cccc(-c3ccccc3)c2)[C@@H](O)[C@@H](O)[C@@H]1O` [Compound 43, (2R,3S,4R,5S,6R)-2-(hydroxymethyl)-6-(3-phenylphenyl)tetrahydropyran-3,4,5-triol] yielded an IC50 of 64 nM and a Kd of 12.4 ± 1.3 nM.

The molecule `OC[C@H]1O[C@H](c2ccccc2O)[C@@H](O)[C@@H](O)[C@@H]1O` [Compound 45, (2R,3S,4R,5S,6R)-2-(hydroxymethyl)-6-(2-hydroxyphenyl)tetrahydropyran-3,4,5-triol] registered an IC50 of 183 nM and a Kd of 76.9 ± 49.1 nM.

In the case of `OC[C@H]1O[C@H](c2ccc(O)cc2)[C@@H](O)[C@@H](O)[C@@H]1O` [Compound 46, (2R,3S,4R,5S,6R)-2-(hydroxymethyl)-6-(4-hydroxyphenyl)tetrahydropyran-3,4,5-triol], the IC50 was 148 nM and the Kd was determined as 28.2 ± 13.3 nM.

The molecule `OC[C@H]1O[C@H](c2cccc(F)c2)[C@@H](O)[C@@H](O)[C@@H]1O` [Compound 47, (2R,3S,4R,5S,6R)-2-(3-fluorophenyl)-6-(hydroxymethyl)tetrahydropyran-3,4,5-triol] yielded an IC50 of 163 nM and a Kd of 40.6 ± 10.4 nM.

`CC(C)C(=O)Nc1ccc(-c2cccc([C@H]3O[C@H](CO)[C@@H](O)[C@H](O)[C@@H]3O)c2)cc1` [Compound 49, 2-methyl-N-[4-[3-[(2R,3S,4R,5S,6R)-3,4,5-trihydroxy-6-(hydroxymethyl)tetrahydropyran-2-yl]phenyl]phenyl]propanamide] returned an IC50 of 45 nM and a Kd of 6.3 ± 1.4 nM.

For `CNS(=O)(=O)c1cccc(-c2cccc([C@H]3O[C@H](CO)[C@@H](O)[C@H](O)[C@@H]3O)c2)c1` [Compound 50, N-methyl-3-[3-[(2R,3S,4R,5S,6R)-3,4,5-trihydroxy-6-(hydroxymethyl)tetrahydropyran-2-yl]phenyl]benzenesulfonamide], the IC50 was determined as 39 nM and the affinity, expressed as Kd, was 10.7 ± 5.2 nM.

The molecule `COC(=O)c1cc(Oc2cccc([C@H]3O[C@H](CO)[C@@H](O)[C@H](O)[C@@H]3O)c2)cc(C(=O)OC)c1` [Compound 51, Dimethyl 5-[3-[(2R,3S,4R,5S,6R)-3,4,5-trihydroxy-6-(hydroxymethyl)tetrahydropyran-2-yl]phenoxy]benzene-1,3-dicarboxylate] yielded an IC50 of 33 nM and a Kd of 5.2 ± 0.1 nM.

On to `COC(=O)c1ccc(Oc2cccc([C@H]3O[C@H](CO)[C@@H](O)[C@H](O)[C@@H]3O)c2)cc1` [Compound 52, Methyl 4-[3-[(2R,3S,4R,5S,6R)-3,4,5-trihydroxy-6-(hydroxymethyl)tetrahydropyran-2-yl]phenoxy]benzoate], for which the IC50 was 23 nM and the Kd was < 5 nM.

`COC(=O)Cc1ccc(Oc2ccc([C@H]3O[C@H](CO)[C@@H](O)[C@H](O)[C@@H]3O)cc2)cc1` [Compound 55, methyl 2-(4-(4-((2R,3S,4R,5S,6R)-3,4,5-trihydroxy-6-(hydroxymethyl)tetrahydro-2H-pyran-2-yl)phenoxy)phenyl)acetate] came in with an IC50 of 35 nM and a Kd of 6.3 ± 0.4 nM.

As for `COC(=O)c1cccc(Oc2ccc([C@H]3O[C@H](CO)[C@@H](O)[C@H](O)[C@@H]3O)cc2)c1` [Compound 56, Methyl 3-(4-((2R,3S,4R,5S,6R)-3,4,5-trihydroxy-6-(hydroxymethyl)tetrahydro-2H-pyran-2-yl)phenoxy)benzoate], the IC50 came to 14 nM and the Kd was 5.4 ± 0.3 nM.

What is called IC50 is the concentration that gives 50% inhibition. A higher IC50 goes with weaker potency. One may read the Kd as the constant that tells how readily two partners part at equilibrium. A high value points to a looser complex.
